US20260200919A1, “SUBSTITUTED AMINOPYRIDINE COMPOUNDS AND METHODS OF TREATING DISEASE USING SAME” (Atavistik Bio, Inc., priority 2023, published 2026)
pIC50: −log10 of the molar value.

Legend:
[1] = target: T1, human recombinant kinase full-length AKT1 E17K (Homo sapiens, UniProt P31749, E17K); experiment: AKT1 E17K kinase assay (TR-FRET, Lance); type: biochemical; conditions: 0.6 nM AKT1 E17K, 50 nM Ulight-CREBtide, either 50 μM ATP or 2 mM ATP (not specified which), 60 min at RT
T1 construct: Purified human recombinant kinase full-length AKT1 E17K was expressed in insect cells; made in house; host or cells: insect cells
How it was run: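 Full-length human AKT1 E17K (insect cell-expressed, PDPK1-activated; 0.6 nM) with 50 nM ULight-CREBtide in HEPES pH 7.5 with MgCl2 and DTT. ATP at 50 μM or 2 mM, 1% DMSO, 10-point dose response, 60 min at RT.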

[2] = target: T2, human recombinant kinase full-length wildtype AKT1 (Homo sapiens, UniProt P31749); experiment: AKT1 kinase assay (wildtype, TR-FRET, Lance); type: biochemical; conditions: 0.6 nM wildtype AKT1, 50 nM Ulight-CREBtide, either 50 μM ATP or 2 mM ATP (not specified which), 60 min at RT
T2 construct: Purified human recombinant kinase full-length wildtype AKT1 was expressed in insect cells; made in house; host or cells: insect cells
How it was run: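 Insect-cell-expressed AKT1, activated in vitro by PDPK1, was used at 0.6 nM with 50 nM Ulight-CREBtide and 50 μM or 2 mM ATP in 50 mM HEPES pH 7.5, 1% DMSO, over a 10-point dose response.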

T2 sequence (P31749 whole entry): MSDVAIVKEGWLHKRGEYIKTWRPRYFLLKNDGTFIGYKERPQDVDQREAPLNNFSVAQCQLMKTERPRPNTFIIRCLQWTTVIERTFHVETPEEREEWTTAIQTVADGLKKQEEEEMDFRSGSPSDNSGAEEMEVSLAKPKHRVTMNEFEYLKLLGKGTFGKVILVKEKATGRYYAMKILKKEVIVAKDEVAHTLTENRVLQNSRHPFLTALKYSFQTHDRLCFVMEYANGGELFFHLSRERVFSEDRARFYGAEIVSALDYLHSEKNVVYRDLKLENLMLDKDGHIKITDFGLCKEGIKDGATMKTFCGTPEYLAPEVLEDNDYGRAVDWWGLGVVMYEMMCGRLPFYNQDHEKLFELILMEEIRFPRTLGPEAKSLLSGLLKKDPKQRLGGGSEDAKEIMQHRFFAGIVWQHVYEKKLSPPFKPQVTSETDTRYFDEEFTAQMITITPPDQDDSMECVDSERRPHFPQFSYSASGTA
T1 sequence (P31749 whole entry E17K): as the sequence (P31749 whole entry) above, with E17K counted along it

pIC50 [1] | pIC50 [2] | SMILES
> 7.30 | > 6.30 | Nc1ncccc1-c1nc2ccc(-c3ccccc3)nc2n1-c1ccc(NC(=O)c2cccc(CC(=O)O)c2)nc1 [Compound 64, 2-(3-((5-(2-(2-aminopyridin-3-yl)-5-phenyl-3H-imidazo[4,5-b]pyridin-3-yl)pyridin-2-yl)carbamoyl)phenyl) acetic acid]
< 6.30 | > 6.30 | Nc1ncccc1-c1nc2cc(-c3cccnc3)cnc2n1-c1ccc(CNC(=O)c2ccc(CC(=O)O)cc2)cc1 [Compound 88, 2-(4-((4-(2-(2-aminopyridin-3-yl)-6-(pyridin-3-yl)-3H-imidazo[4,5-b]pyridin-3-yl)benzyl)carbamoyl)phenyl) acetic acid]
6.30 to 6.70 | > 6.30 | Nc1ncccc1-c1nc2cc(-c3ccccc3)cnc2n1-c1ccc(CNC(=O)c2cccc(CC(=O)O)c2)cc1 [Compound 82, 2-(3-((4-(2-(2-aminopyridin-3-yl)-6-phenyl-3H-imidazo[4,5-b]pyridin-3-yl)benzyl)carbamoyl)phenyl) acetic acid]
< 6.30 | > 6.30 | CC(C)c1ccc2nc(-c3cccnc3N)n(-c3ccc(C4CN(Cc5ccc(C(=O)O)cc5)C4)cc3)c2n1 [Compound 173, 4-((3-(4-(2-(2-aminopyridin-3-yl)-5-isopropyl-3H-imidazo[4,5-b]pyridin-3-yl)phenyl)azetidin-1-yl)methyl)benzoic acid]
6.70 to 7.30 | > 6.30 | CC(=O)Nc1cccc(-c2ccc3nc(-c4cccnc4N)n(-c4ccc(CNC(=O)c5cccc(CC(=O)O)c5)cc4)c3n2)c1 [Compound 81, 2-(3-((4-(5-(3-acetamidophenyl)-2-(2-aminopyridin-3-yl)-3H-imidazo[4,5-b]pyridin-3-yl)benzyl)carbamoyl)phenyl) acetic acid]
< 6.30 | < 6.30 | Nc1ncccc1-c1nc2ccc(-c3ccccc3)nc2n1-c1ccc(CNC(=O)c2cccc(CC(=O)O)c2)c(F)c1 [Compound 50, 2-(3-((4-(2-(2-aminopyridin-3-yl)-5-phenyl-3H-imidazo[4,5-b]pyridin-3-yl)-2-fluorobenzyl)carbamoyl)phenyl)acetic acid]
6.30 to 6.70 | > 6.30 | Nc1ncccc1-c1nc2ccc(-c3ccccc3)nc2n1-c1ccc(C2CN(Cc3cccc(CC(=O)O)c3)C2)cc1 [Compound 79, 2-(3-((3-(4-(2-(2-aminopyridin-3-yl)-5-phenyl-3H-imidazo[4,5-b]pyridin-3-yl)phenyl)azetidin-1-yl)methyl)phenyl) acetic acid]
< 6.30 | > 6.30 | Nc1ncccc1-c1nc2ccc(C(F)(F)F)nc2n1-c1ccc(CNC(=O)c2ccc(C(=O)O)cc2)cc1 [Compound 99, 4-((4-(2-(2-aminopyridin-3-yl)-5-(trifluoromethyl)-3H-imidazo[4,5-b]pyridin-3-yl)benzyl)carbamoyl)benzoic acid]
< 6.30 | > 6.30 | CCNC(=O)Cc1cccc(C(=O)NCc2ccc(-n3c(-c4cccnc4N)nc4ccc(-c5ccccc5)nc43)cc2)c1 [Compound 44, N-(4-(2-(2-aminopyridin-3-yl)-5-phenyl-3H-imidazo[4,5-b]pyridin-3-yl)benzyl)-3-(2-(ethylamino)-2-oxoethyl)benzamide]
< 6.30 | < 6.30 | Nc1ncccc1-c1nc2ccc(-c3ccccc3)nc2n1-c1ccc(CNC(=O)c2cccc(CC(=O)O)c2)cn1 [Compound 49, 2-(3-(((6-(2-(2-aminopyridin-3-yl)-5-phenyl-3H-imidazo[4,5-b]pyridin-3-yl)pyridin-3-yl)methyl)carbamoyl)phenyl)acetic acid]
< 6.30 | < 6.30 | Nc1ncccc1-c1nc2cccnc2n1-c1ccc(CNC(=O)c2cccc(CC(=O)O)c2)cc1 [Compound 101, 2-(3-((4-(2-(2-aminopyridin-3-yl)-3H-imidazo[4,5-b]pyridin-3-yl)benzyl)carbamoyl)phenyl) acetic acid]
> 7.30 | > 6.30 | Nc1ncccc1-c1nc2cc(-c3ccc(NC(=O)c4ccccc4)cc3)cnc2n1-c1ccc(CNC(=O)c2cccc(CC(=O)O)c2)cc1 [Compound 86, 2-(3-((4-(2-(2-aminopyridin-3-yl)-6-(4-benzamidophenyl)-3H-imidazo[4,5-b]pyridin-3-yl)benzyl)carbamoyl)phenyl) acetic acid]

The next lines start with the molecule.

SMILES | pIC50 [1] | pIC50 [2]
CC(c1ccc(C(=O)O)cc1)N1CCC(c2ccc(-n3c(-c4cccnc4N)nc4ccc(-c5ccccc5)nc43)cc2)C1 (stereo not shown) [Compound 171, 4-(1-(3-(4-(2-(2-aminopyridin-3-yl)-5-phenyl-3H-imidazo[4,5-b]pyridin-3-yl)phenyl)pyrrolidin-1-yl)ethyl)benzoic acid] | 6.30 to 6.70 | > 6.30
Cc1cc(C(=O)Nc2ccc(-n3c(-c4cccnc4N)nc4ccc(-c5ccccc5)nc43)nc2C)ccc1C(=O)O [Compound 181, 4-((6-(2-(2-aminopyridin-3-yl)-5-phenyl-3H-imidazo[4,5-b]pyridin-3-yl)-2-methylpyridin-3-yl)carbamoyl)-2-methylbenzoic acid] | < 6.30 | < 6.30
Cc1nc(NC(=O)c2ccc(C(=O)O)c(F)c2)ccc1-n1c(-c2cccnc2N)nc2ccc(-c3ccccc3)nc21 [Compound 154] | > 7.30 | > 6.30
C[C@@H](c1ccc(C(=O)O)cc1F)N1CC(c2ccc(-n3c(-c4cccnc4N)nc4ccc(-c5ccccc5)nc43)cc2)C1 [Compound 159] | 6.30 to 6.70 | > 6.30
COC(=O)c1ccc([C@H](C)N2CC(c3ccc(-n4c(-c5cccnc5N)nc5ccc(-c6ccccc6)nc54)cc3)C2)cc1 (single isomer, unassigned) [Compound 158] | < 6.30 | > 6.30
Nc1ncccc1-c1nc2ccc(-c3ccc(F)cc3)nc2n1-c1ccc(NC(=O)c2ccc(C(=O)O)cc2)nc1 [Compound 109, 4-((5-(2-(2-aminopyridin-3-yl)-5-(4-fluorophenyl)-3H-imidazo[4,5-b]pyridin-3-yl)pyridin-2-yl)carbamoyl)benzoic acid] | 6.70 to 7.30 | > 6.30
C[C@H](c1ccc(C(=O)O)cc1)N1CC(c2ccc(-n3c(-c4cccnc4N)nc4ccc(-c5ccccc5)nc43)cc2)C1 (single isomer, unassigned) [Compound 125] | 6.70 to 7.30 | > 6.30
Nc1ncccc1-c1nc2ccc(-c3ccccc3)nc2n1-c1ccc(NC(=O)c2cccc(C(=O)O)c2F)c(F)c1 [Compound 65, 3-((4-(2-(2-aminopyridin-3-yl)-5-phenyl-3H-imidazo[4,5-b]pyridin-3-yl)-2-fluorophenyl)carbamoyl)-2-fluorobenzoic acid] | 6.30 to 6.70 | > 6.30
CC(c1ccc(C(=O)O)cc1)N1CCC(c2ccc(-n3c(-c4cccnc4N)nc4ccc(-c5ccccc5)nc43)cc2)CC1 (stereo not shown) [Compound 169, 4-(1-(4-(4-(2-(2-aminopyridin-3-yl)-5-phenyl-3H-imidazo[4,5-b]pyridin-3-yl)phenyl)piperidin-1-yl)ethyl)benzoic acid] | 6.30 to 6.70 | > 6.30
C[C@H](c1ccc(C(=O)O)cc1F)N1CC(c2ccc(-n3c(-c4cccnc4N)nc4ccc(-c5ccccc5)nc43)cc2)C1 [Compound 160] | 6.70 to 7.30 | > 6.30
Cc1cc(NC(=O)c2ccc(-n3c(-c4cccnc4N)nc4ccc(-c5ccccc5)nc43)cn2)ccc1C(=O)O [Compound 177, 4-(5-(2-(2-aminopyridin-3-yl)-5-phenyl-3H-imidazo[4,5-b]pyridin-3-yl)picolinamido)-2-methylbenzoic acid] | 6.30 to 6.70 | > 6.30
